In ChEMBL document CHEMBL4304800, “C4-Phenylthio β-lactams: Effect of the chirality of the β-lactam ring on antimicrobial activity” (2019):

Experiments:
Assay type in all cases: functional
Conditions in all cases: 336 h
[1] = test system: Mycobacterium tuberculosis; test: Antitubercular activity against multi-drug resistant Mycobacterium tuberculosis K26b00MR after 14 days in presence of middlebrook 7H9/BSA medium by eleven fold serial dilution method
[2] = test system: Mycobacterium tuberculosis; test: Antitubercular activity against multi-drug resistant Mycobacterium tuberculosis K29b00MR after 14 days in presence of middlebrook 7H9/BSA medium by eleven fold serial dilution method
[3] = test system: Mycobacterium tuberculosis; test: Antitubercular activity against multi-drug resistant Mycobacterium tuberculosis K25b00MR after 14 days in presence of middlebrook 7H9/BSA medium by eleven fold serial dilution method
[4] = test system: Mycobacterium tuberculosis; test: Antitubercular activity against multi-drug resistant Mycobacterium tuberculosis K22b00MR after 14 days in presence of middlebrook 7H9/BSA medium by eleven fold serial dilution method

With `O=C1CC(Sc2ccc(C(F)(F)F)cc2)N1C(=O)NCc1ccccc1` (racemic) the MIC [1] was 12.5 µg/mL, the MIC [2] was 25 µg/mL and the MIC [3] was 25 µg/mL. It also gave an MIC [4] of 12.5 µg/mL.

Work on `C[C@H](NC(=O)N1C(=O)C[C@@H]1Sc1ccc(C(F)(F)F)cc1)c1ccccc1` yielded an MIC [1] of 12.5 µg/mL, an MIC [2] of 12.5 µg/mL and an MIC [3] of 12.5 to 25 µg/mL. For the same compound, the MIC [4] was 12.5 µg/mL.

`C[C@@H](NC(=O)N1C(=O)C[C@@H]1Sc1ccc(F)cc1F)c1ccccc1` showed an MIC [1] of 25 µg/mL, an MIC [2] of 12.5 µg/mL and an MIC [3] of 12.5 µg/mL. It also gave an MIC [4] of 12.5 µg/mL.

In the case of `NNC(=O)c1ccncc1` [ISONIAZID], the MIC [1] is reported as over 1 µg/mL, the MIC [2] is reported as at least 1 µg/mL and the MIC [3] is reported as 1.3 µg/mL. The MIC [4] was 0.6 µg/mL.

`C[C@H](NC(=O)N1C(=O)C[C@H]1Sc1ccc(F)cc1F)c1ccccc1` showed an MIC [1] of 25 to 50 µg/mL, an MIC [2] of 25 µg/mL and an MIC [3] of 12.5 to 25 µg/mL. For the same compound, the MIC [4] was 25 µg/mL.

`C[C@@H](NC(=O)N1C(=O)C[C@H]1Sc1ccc(F)cc1F)c1ccccc1` gave an MIC [1] of 12.5 to 25 µg/mL, an MIC [2] of 12.5 µg/mL and an MIC [3] of 12.5 µg/mL. The MIC [4] was 12.5 µg/mL.
